From publication PMC5986797, “Laminin heparin-binding peptides bind to several growth factors and enhance diabetic wound healing” (Nature Communications, 2018)

What was measured:
[1] = test system: recombinant human laminin isoforms (–111, –211, –332, –411, –421, –511, and –521); assay: ELISA: binding of full-length laminin isoforms to absorbed GFs and CXCL chemokines; details: 50 nM GF coated, 10 nM laminin, n = 4; for binding to all tested laminin isoforms (ELISA, A450 nm): signals greater than 0.1 indicate binding; for binding to the other laminin isoforms (ELISA, A450 nm): isoforms other than laminin-332
Description: Ninety-six-well ELISA plates (med-binding, Greiner Bio-One) were coated with 50 nM GFs in 100 µL/well of phosphate-buffered saline (PBS) at 37 °C for more than 2 h. After blocking with 2% BSA solution containing PBS and 0.05% Tween 20 (PBS-T), 10 nM recombinant human laminin isoforms (–111, –211, –332, –411, –421, –511, and –521) (>95% purity tested by SDS-PAGE, BioLamina) in 100 µL/well PBS were added. Bound laminin was detected with 100 µL/well rabbit anti-human LAMC1 polyclonal antibody (Assay Biotech, Catalog No. C13072, 1:1000 dilution in PBS) or rabbit anti-human LAMA3 polyclonal antibody (Assay Biotech, Catalog No. C13066, 1:1000 dilution in PBS). After incubation with biotinylated anti-rabbit antibody for 60 min at room temperature (RT), HRP-conjugated streptavidin (Jackson ImmunoResearch) was added. After 60 min of incubation at RT, 50 μL of TMB substrate (Sigma-Aldrich) was added. The reactions were stopped by adding 25 μL of 2 N H2SO4. Subsequently, the absorbance at 450 nm was measured with a reference of 570 nm.

[2] = test system: VEGF-A165; assay: ELISA: VEGF-A165 binding to laminin LG domain / laminin peptide; set-up: species or system human; details: 10 µg/mL laminin peptide coated (legend; method 1 μg/mL); 1 μg/mL GF; vs BSA-coated wells; n = 4
Description: (§1) ELISA tests were performed as described above. In brief, […] recombinant protein, laminin alpha 4 LG domain recombinant protein (R&D Systems), laminin alpha 5 LG domain recombinant protein (LD BioPharma), or laminin peptide (sequences are described in Supplementary Table 1, chemically synthesized by Genscript) in PBS for 2 h at 37 °C. A concentration of 1 μg/mL of BSA served as non-binding protein control. After blocking with 2% BSA PBS-0.05% Tween 20 (PBS-T) solution, 1 μg/mL of the recombinant human proteins (VEGF-A121, VEGF-A165, PlGF-1, PlGF-2, PDGF-BB, or FGF-2) or 10 μg/mL of biotinylated heparin (Sigma-Aldrich) were added. Bound GF was detected with biotinylated antibodies for human VEGF-A, PlGF, PDGF-BB (R&D Systems, Catalog No. DY220, 1:180 dilution), or FGF-2 (R&D Systems). The antibodies were detected by streptavidin-HRP (R&D Systems).

[3] = test system: human umbilical vein endothelial cells (HUVEC); assay: Cell adhesion assay, HUVEC; type: cell-based; set-up: key to Cell adhesion HUVEC: ++ indicates high affinities; + indicates medium/low affinities; details: for Cell adhesion HUVEC: summary table; for HUVEC attachment on peptide-coated surfaces: without EDTA, 1 μg/mL peptide coated, 3000 cells/well, 30 min, 37 °C, 100 ng/mL VEGF-A165, 1% FBS, CyQUANT, n = 10
Description: A total of 96-well plates (non-tissue culture treated, Greiner Bio-One) were pre-coated with 1 μg/mL with laminin HBD peptides in PBS for 2 h at 37 °C, followed by blocking with 2% BSA PBS for 1 h at RT. […] Cells were plated at 3000 cells/well on laminin peptide pre-coated plates and incubated for 30 min at 37 °C, 5% CO2. Then, the medium was removed, and wells were quickly washed three times with PBS. Cell numbers were quantified using a CyQUANT assay, according to the manufacturer’s instructions (Invitrogen). All cell lines were checked for mycoplasma contamination and used in passages from 5 to 8.

[4] = test system: FGF-2; assay: ELISA: FGF-2 binding to laminin LG domain / laminin peptide; set-up: species or system human; details: 10 µg/mL laminin peptide coated (legend; method 1 μg/mL); 1 μg/mL GF; vs BSA-coated wells; n = 4
Description: (§2) ELISA tests were performed as described above. In brief, ELISA plates were coated with 1 μg/mL of laminin alpha 3 LG domain recombinant protein, laminin alpha 4 LG domain recombinant protein (R&D Systems), laminin alpha 5 LG domain recombinant protein (LD BioPharma), or laminin peptide (sequences are described in Supplementary Table 1, chemically synthesized by Genscript) in PBS for 2 h at 37 °C. A concentration of 1 μg/mL of BSA served as non-binding protein control. After blocking with 2% BSA PBS-0.05% Tween 20 (PBS-T) solution, 1 μg/mL of the recombinant human proteins (VEGF-A121, VEGF-A165, PlGF-1, PlGF-2, PDGF-BB, or FGF-2) or 10 μg/mL of biotinylated heparin (Sigma-Aldrich) were added. Bound GF was detected with biotinylated antibodies for human VEGF-A, PlGF, PDGF-BB (R&D Systems, Catalog No. DY220, 1:180 dilution), or FGF-2 (R&D Systems). The antibodies were detected by streptavidin-HRP (R&D Systems).

[5] = test system: GF; assay: ELISA: GF binding to laminin peptides, stated for the tested GFs together; set-up: species or system human; key: ++ indicates high affinities; + indicates medium/low affinities; details: summary table
Description: as §2

[6] = test system: human lung fibroblasts; assay: Cell adhesion assay, fibroblasts; type: cell-based; set-up: key to Cell adhesion Fibroblast: ++ indicates high affinities; + indicates medium/low affinities; details: for Cell adhesion Fibroblast: summary table; for fibroblast attachment on peptide-coated surfaces: without EDTA, 1 μg/mL peptide coated, 3000 cells/well, 30 min, 37 °C, FGM-2, 1% FBS, CyQUANT, vs BSA, n = 10
Description: A total of 96-well plates (non-tissue culture treated, Greiner Bio-One) were pre-coated with 1 μg/mL with laminin HBD peptides in PBS for 2 h at 37 °C, followed by blocking with 2% BSA PBS for 1 h at RT. Cell adhesion assays were performed using human lung fibroblasts (Lonza) in FGM-2 medium (Lonza) or human umbilical vein endothelial cells (HUVEC; Lonza) in EGM-2 medium (Lonza) supplemented with 1% fetal bovine serum (FBS) and […] VEGF-A165, with or without 5 mM EDTA (Sigma-Aldrich). Cells were plated at 3000 cells/well on laminin peptide pre-coated plates and incubated for 30 min at 37 °C, 5% CO2. Then, the medium was removed, and wells were quickly washed three times with PBS. Cell numbers were quantified using a CyQUANT assay, according to the manufacturer’s instructions (Invitrogen). All cell lines were checked for mycoplasma contamination and used in passages from 5 to 8.

[7] = test system: recombinant human syndecan-1, syndecan-2, syndecan-3, and syndecan-4; assay: ELISA: syndecan binding to laminin peptides; set-up: key to Interaction with Syndecan: ++ indicates high affinities; + indicates medium/low affinities; details: for binding to syndecans 1–4 (ELISA): 10 µg/mL laminin peptide coated (legend; method 1 μg/mL), 1 μg/mL histidine-tagged syndecan, vs BSA-coated wells, n = 8; for Interaction with Syndecan: summary table
Description: ELISA tests were performed as described above. […] A concentration of 1 μg/mL of BSA served as non-binding protein control. After blocking with 2% BSA PBS-T solution, 1 μg/mL of the recombinant human syndecan-1, syndecan-2, syndecan-3, and syndecan-4 (all syndecan proteins are histidine-tagged; SinoBiological) were added. Bound GF was detected with anti-histidine tag antibody (BioLegend, Catalog No. 562504, 1:1000 dilution).

[8] = ELISA: biotinylated heparin binding to laminin peptides; set-up: key to Interaction with Heparin: ++ indicates high affinities; + indicates medium/low affinities; details: for binding to heparin (ELISA): 10 µg/mL laminin peptide coated (legend; method 1 μg/mL), 10 µg/mL biotinylated heparin, vs BSA-coated wells, n = 4; for Interaction with Heparin: summary table
Description: as §1

[9] = test system: PlGF-2; assay: ELISA: PlGF-2 binding to laminin LG domain / laminin peptide; set-up: species or system human; details: 10 µg/mL laminin peptide coated (legend; method 1 μg/mL); 1 μg/mL GF; vs BSA-coated wells; n = 4
Description: as §2

[10] = test system: PDGF-BB; assay: ELISA: PDGF-BB binding to laminin LG domain / laminin peptide; set-up: species or system human; details: 10 µg/mL laminin peptide coated (legend; method 1 μg/mL); 1 μg/mL GF; vs BSA-coated wells; n = 4
Description: as §2

## PDGF-AA: platelet-derived growth factor, PeproTech
[1]
  binding to all tested laminin isoforms (ELISA, A450 nm): bound

## FGF-1: fibroblast growth factor, PeproTech
[1]
  binding to all tested laminin isoforms (ELISA, A450 nm): did not

## FGF-18: fibroblast growth factor, PeproTech
[1]
  binding to all tested laminin isoforms (ELISA, A450 nm): bound

## PDGF-BB: platelet-derived growth factor, PeproTech
[1]
  binding to all tested laminin isoforms (ELISA, A450 nm): bound

## PPFLMLLKGSTRFNKTKTFR [LAMA3_2932–2951, chemically synthesized human laminin LAMA3 LG3–LG4 linker peptide, 20 aa]
[2]
  binding to VEGF-A165 (ELISA), peptides: preferentially bound
[3]
  Cell adhesion HUVEC: +
  HUVEC attachment on peptide-coated surfaces: promoted HUVEC attachment
[4]
  binding to FGF-2 (ELISA), peptides: preferentially bound
[5]
  Interaction with GF: +
[6]
  Cell adhesion Fibroblast: +
  fibroblast attachment on peptide-coated surfaces: enhancement of fibroblast attachment
[7]
  binding to syndecans 1–4 (ELISA): weak binding
  Interaction with Syndecan: +
[8]
  binding to heparin (ELISA): bound to heparin
  Interaction with Heparin: ++

## IGF-2: insulin-like growth factor, PeproTech
[1]
  binding to all tested laminin isoforms (ELISA, A450 nm): Neither IGF-1 nor IGF-2 displayed significant binding

## IGF-1: insulin-like growth factor, PeproTech
[1]
  binding to all tested laminin isoforms (ELISA, A450 nm): Neither IGF-1 nor IGF-2 displayed significant binding

## βNGF: β-nerve growth factor, PeproTech
[1]
  binding to all tested laminin isoforms (ELISA, A450 nm): bound only weakly

## FGF-2: fibroblast growth factor, PeproTech
[1]
  binding to all tested laminin isoforms (ELISA, A450 nm): bound

## CXCL-12α: CXCL chemokine, PeproTech
[1]
  binding to the other laminin isoforms (ELISA, A450 nm): not to the other isoforms
  binding to laminin-332 (ELISA, A450 nm): bound weakly

## TPGLGPRGLQATARKASRRSRQPARHPACML [LAMA5_3300–3330, chemically synthesized human laminin LAMA5 linker peptide, 31 aa]
[2]
  binding to VEGF-A165 (ELISA), peptides: preferentially bound
[9]
  binding to PlGF-2 (ELISA), peptides: preferentially bound
[5]
  Interaction with GF: +
[7]
  binding to syndecans 1–4 (ELISA): significant binding
  Interaction with Syndecan: ++
[8]
  binding to heparin (ELISA): bound to heparin
  Interaction with Heparin: ++

## PLFLLHKKGKNLSKPKASQNKKGGKSK [LAMA4_1408–1434, chemically synthesized human laminin LAMA4 linker peptide, 27 aa]
[2]
  binding to VEGF-A165 (ELISA), peptides: bound
[10]
  binding to PDGF-BB (ELISA), peptides: bound
[9]
  binding to PlGF-2 (ELISA), peptides: bound
[4]
  binding to FGF-2 (ELISA), peptides: bound
[5]
  Interaction with GF: ++
[7]
  binding to syndecans 1–4 (ELISA): significant binding
  Interaction with Syndecan: ++
[8]
  binding to heparin (ELISA): bound to heparin
  Interaction with Heparin: ++

## KNSFMALYLSKGR [LAMA3_3031–3043, chemically synthesized human laminin LAMA3 LG4 peptide, 13 aa]
[2]
  binding to VEGF-A165 (ELISA), peptides: bound
[5]
  Interaction with GF: +
[6]
  Cell adhesion Fibroblast: +
  fibroblast attachment on peptide-coated surfaces: enhancement of fibroblast attachment
[7]
  binding to syndecans 1–4 (ELISA): weak binding
  Interaction with Syndecan: +
[8]
  binding to heparin (ELISA): do not show heparin binding

## CXCL-12γ: C–X–C motif ligand (CXCL)-12γ, R&D systems
[1]
  binding to all tested laminin isoforms (ELISA, A450 nm): bound

## CXCL-11: CXCL chemokine, PeproTech
[1]
  binding to the other laminin isoforms (ELISA, A450 nm): not to the other isoforms
  binding to laminin-332 (ELISA, A450 nm): bound weakly

## TLFLAHGRLVYMFNVGHKKLKIR [LAMA4_1521–1543, chemically synthesized human laminin LAMA4 LG4 peptide, 23 aa]
[10]
  binding to PDGF-BB (ELISA), peptides: not statistically significant
[3]
  Cell adhesion HUVEC: +
  HUVEC attachment on peptide-coated surfaces: promoted HUVEC attachment
[5]
  Interaction with GF: +
[6]
  Cell adhesion Fibroblast: +
  fibroblast attachment on peptide-coated surfaces: enhancement of fibroblast attachment
[7]
  binding to syndecans 1–4 (ELISA): significant binding
  Interaction with Syndecan: ++
[8]
  binding to heparin (ELISA): bound to heparin
  Interaction with Heparin: ++

## NT-3: neurotrophin, PeproTech
[1]
  binding to all tested laminin isoforms (ELISA, A450 nm): strong binding

## HB-EGF: heparin-binding epidermal growth factor, PeproTech
[1]
  binding to all tested laminin isoforms (ELISA, A450 nm): weakly bound

## BMP-4: bone morphogenetic protein, PeproTech
[1]
  binding to all tested laminin isoforms (ELISA, A450 nm): not
